# Source: patent US10287552B2, “Generation of hepatocytes from pluripotent stem cells” (ALBERT EINSTEIN COLLEGE OF MEDICINE, INC., priority 2012, dated 2019)
# B1: G-CSF: G-CSF (Amgen Inc.), factor identified in eFHLC-CM (protein, UniProt P09919 31-207, looked up)
# Granulocyte …: TPLGPASSLPQSFLLKCLEQVRKIQGDGAALQEKLVSECATYKLCHPEELVLLGHSLGIPWAPLSSCPSQALQLAGCLSQLHSGLFLYQGLLQALEGISPELGPTLDTLQLDVADFATTIWQQMEELGMAPALQPTQGAMPAFASAFQRRAGGVLVASHLQSFLEVSYRVLRHLAQP
# Tested on: ATMP-tdT Huh-7 cells
# Assay: cis-P toxicity and ATM promoter activity assay
# Format: cell-based, human
# Settings: 15 μM cis-P alone
row,Molecule,ATM promoter activity
1,"N.N.[Cl][Pt][Cl] [Cis-P, cis-platinum, reference compound]",increased

# Same assay, conditions: cis-P plus factor, versus cis-P-treated cells
Molecule,ATM promoter activity,cell viability
FGF1: growth factor identified in eFHLC-CM,lowered ATM promoter activity,improved cell viability
IGF1: growth factor identified in eFHLC-CM,lowered ATM promoter activity,improved cell viability
VEGF,ineffective,ineffective
FGF2: growth factor identified in eFHLC-CM,lowered ATM promoter activity,improved cell viability
B1,lowered ATM promoter activity,improved cell viability
